Measured values taken from patent US10434199B2, “Picolinate cross-bridged cyclams, chelates with metallic cations and use thereof” (UNIVERSITÉ DE BRETAGNE OCCIDENTALE, priority 2013, dated 2019).

Legend:
[1] = Potentiometric titrations: protonation constants of the ligands; format: physicochemical; conditions: 25.0° C., 0.10M KNO3
Method: Equipment and work conditions. The potentiometric setup has been described in Roger, M. et al. Inorg. Chem. 2013, 52, 5246-5259. The titrant was a KOH solution prepared at ca. 0.1 M from a commercial ampoule of analytical grade, and its accurate concentration was obtained by application of the Gran's method upon titration of a standard HNO3 solution (Rossotti, F. J. and Rossotti, H. J. J. Chem. Educ. 1965, 42, 375-378). Ligand solutions were prepared at about 2.0×10^−3 M, and the Cu^2+ and Zn^2+ solutions at ca. 0.05 M from analytical grade nitrate salts and standardized by complexometric titrations with H4edta (ethylenediaminetetraacetic acid). Sample solutions for titration contained approximately 0.04 mmol of ligand in a volume of 30 mL where the ionic strength was kept at 0.10 M using KNO3 as background electrolyte. Metal cations were added at 0.9 equiv. of the ligand amount in complexation titrations. Batch titrations were prepared in a similar way but with each titration point corresponding to 1/10 of the amount of a conventional titration sample. Batch titration points were incubated in tightly closed vials at 25° C. until potential measurements attained complete stability, which happened within a week.
Measurements. All measurements were carried out at 25.0±0.1° C. under inert atmosphere. The electromotive force of the sample solutions was measured after calibration of the electrodes by titration of a standard HNO3 solution at 2.0×10^−3 M in the work conditions. The [H^+] of the solutions was determined by measurement of the electromotive force of the cell, E=E^o′+Q log [H^+]+Ej. The term pH is defined as −log [H^+]. E^o′ and Q were determined from the acid region of the calibration curves. Deviations from the Nernst law at very low pH (pH<2.5) were corrected with the VLpH software (Calibration software from the maker of Hyperquad available for free at http://www.hyperquad.co.uk/), which performs a [H^+] correction based on a very low pH calibration procedure. The liquid-junction potential, Ej, was otherwise found to be negligible for pH >2.5 under the experimental conditions used. […] Each titration consisted of 80-100 equilibrium points in the range of pH 2.5-11.5 (or 1.5-11.5 for Cu^2+ complexations), and at least two replicate titrations were performed for each particular system.
Calculations. […] The errors quoted are the standard deviations calculated by the fitting program from all the experimental data for each system.
The protonation constants of Hcb-te1pa were studied in aqueous solution at 25.0° C. The compound has five basic centers consisting of the four amines and the carboxylate function, from which only two could be accurately determined by potentiometric titrations (Table 1). […]

[2] = Potentiometric titrations: stability constants and pM of Cu^2+ complexes; format: physicochemical
Method: Equipment and work conditions. The potentiometric setup has been described in Roger, M. et al. Inorg. […] Ligand solutions were prepared at about 2.0×10^−3 M, and the Cu^2+ and Zn^2+ solutions at ca. 0.05 M from analytical grade nitrate salts and standardized by complexometric titrations with H4edta (ethylenediaminetetraacetic acid). Sample solutions for titration contained approximately 0.04 mmol of ligand in a volume of 30 mL where the ionic strength was kept at 0.10 M using KNO3 as background electrolyte. Metal cations were added at 0.9 equiv. of the ligand amount in complexation titrations. Batch titrations were prepared in a similar way but with each titration point corresponding to 1/10 of the amount of a conventional titration sample.
Measurements. All measurements were carried out at 25.0±0.1° C. under inert atmosphere. The electromotive force of the sample solutions was measured after calibration of the electrodes by titration of a standard HNO3 solution at 2.0×10^−3 M in the work conditions. The [H^+] of the solutions was determined by measurement of the electromotive force of the cell, E=E^o′+Q log [H^+]+Ej. The term pH is defined as −log [H^+]. E^o′ and Q were determined from the acid region of the calibration curves. Deviations from the Nernst law at very low pH (pH<2.5) were corrected with the VLpH software (Calibration software from the maker of Hyperquad available for free at http://www.hyperquad.co.uk/), which performs a [H^+] correction based on a very low pH calibration procedure.
Calculations. The potentiometric data were refined with the Hyperquad software, and speciation diagrams were plotted using the HySS software. The overall equilibrium constants βi^H and βMmHhL1 are defined by βMmHhL1=[MmHhLl]/[M]^m[H]^h[L]^l (βi^H=[HhLl]/[H]^h[L]^l and βML-1L=βML(OH)×Kw). Differences in log units between the values of protonated (or hydrolysed) and non-protonated constants provide the stepwise (log K) reaction constants (being KMmHhL1=[MmHhLl]/[MmHh-1Ll][H]). The errors quoted are the standard deviations calculated by the fitting program from all the experimental data for each system.
The stability constants of the complexes formed by Hcb-te1pa with Cu^2+ and Zn^2+ were determined by potentiometric titrations in aqueous solution at 25.0° C. in 0.10 M KNO3 ionic strength (Table 2).
During titrations, each experimental point included a supplementary equilibration time in order to yield fully stabilized measurements. […] For this reason, batch titrations were prepared in the range of pH=4-6 and were left to equilibrate until full stabilization, while conventional titrations were used for the remaining pH regions.
For a correct comparison of the thermodynamic stability of the complexes of Hcb-te1pa with the corresponding values of other ligands from the literature, the pM values that take into account the variable basicity properties of different ligands were also calculated (Table 3). […] The thermodynamic stability is not the only important criterion to determine the efficiency of metal complexation because, depending on the application, other factors such as kinetic inertness or in vivo stability can be more important.

## O=C(O)c1cccc(CN2CCCN3CCNCCCN(CC3)CC2)n1 [Hcb-te1pa, 6-(1,4,8,11-tetraazabicyclo[6.6.2]hexadecan-4-ylmethyl)picolinic acid]
[1]
  log βi^H, L + 2 H^+ ⇌ H2L: 25.13(5) log units
  log βi^H, L + 3 H^+ ⇌ H3L: 27.56(5) log units
  log βi^H, L + 4 H^+ ⇌ H4L: <29.56 log units
  log βi^H, L + H^+ ⇌ HL: >15 log units
[2]; 25.0° C., I = 0.10M KNO3
  log KMLHh, Cu^2+ + L ⇌ CuL: 26.00 log units
  log βMLHh, Cu^2+ + L ⇌ CuL: 26.00(5) log units
[2]; overview table
  b) thermodynamic stability: log K[CuL]: 26.00
[2]; overview table, calculated pM
  b) thermodynamic stability: pCu: 15.67
[2]; pH = 7.4, 100% excess of ligand, [M^2+]tot = 1 × 10^−5 M
  Calculated pM, Cu^2+: 15.67
